Measurements reported in ChEMBL document CHEMBL1201862, “PubChem BioAssay data set” (2004).
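Briefly, cells in 96-well plates were exposed to five compound concentrations for 48 h, and endpoints were estimated by linear interpolation. GI50 = concentration required for 50% inhibition of growth.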 Activity calls are given as the source filed them. Cut-off read from the data, not from the text of the source: active = GI50 up to about 1.1 µM and inactive = higher.

Columns and labels:
Test in all cases: inhibition of tumour cell growth, NCI panel, 48 h
[1] = system: NCI-H460
[2] = system: CCRF-CEM
[3] = system: A498
[4] = system: LOX IMVI
[5] = system: U-251
[6] = system: HCT-116
[7] = system: NCI-H226
[8] = system: ACHN
[9] = system: SNB-19
[10] = system: BT-549
[11] = system: MDA-MB-435
[12] = system: SN12C
[13] = system: MDA-MB-231
[14] = system: MDA-N
[15] = system: MOLT-4
[16] = system: OVCAR-5
[17] = system: KM12
[18] = system: SK-MEL-2
[19] = system: SR
[20] = system: MCF7

Measured: GI50

N#CC(C#N)=c1c(=O)c2c3ccccc3cc3cccc1c32
inactive: [1] > 100 µM | [2] > 100 µM | [3] > 100 µM | [4] > 100 µM | [5] > 100 µM | [6] 72.6 µM | [7] > 100 µM | [8] 37.1 µM | [9] > 100 µM | [10] > 100 µM | [11] > 100 µM | [12] > 100 µM | [13] > 100 µM | [14] > 100 µM | [15] 70.3 µM | [16] > 100 µM | [17] 58.7 µM | [18] 92.3 µM

Cc1cc(=O)c2cc(/N=C/c3ccc([N+](=O)[O-])o3)ccc2o1
inactive: [1] > 100 µM | [2] 41.1 µM | [19] 32.7 µM | [3] > 100 µM | [4] 42.7 µM | [5] > 100 µM | [6] 32.5 µM | [7] > 100 µM | [8] 91.6 µM | [9] > 100 µM | [10] 72.6 µM | [11] 44.9 µM | [12] > 100 µM | [13] > 100 µM | [15] 37.4 µM | [16] > 100 µM | [20] 24.3 µM | [17] > 100 µM | [18] > 100 µM

Cc1cc2c(cc1Cl)SC(NNC(=O)c1ccncc1)=NS2(=O)=O
inactive: [1] > 10 µM | [2] > 10 µM | [3] > 10 µM | [4] > 10 µM | [5] > 10 µM | [6] > 10 µM | [7] > 10 µM | [8] > 10 µM | [9] > 10 µM | [10] > 10 µM | [11] > 10 µM | [12] > 10 µM | [13] > 10 µM | [14] > 10 µM | [15] > 10 µM | [16] > 10 µM | [17] > 10 µM | [18] > 10 µM

O=c1c2cc(S(=O)(=O)O)ccc2nc(COc2ccc(Oc3ccc(Cl)cc3Cl)cc2)n1C(=S)Nc1ccc(Cl)cc1
inactive: [1] 17.9 µM | [2] 34.7 µM | [19] 1.53 µM | [3] 22.5 µM | [4] 16.6 µM | [5] 17.2 µM | [6] 22.5 µM | [7] 18.2 µM | [8] 23.6 µM | [9] 33.4 µM | [10] 19.6 µM | [11] 18.6 µM | [12] 18.8 µM | [14] 22.1 µM | [16] 19.8 µM | [20] 20 µM | [17] 22.5 µM | [18] 18.4 µM
